Laboratory results from PMC9687610, “Adenosine-Mimicking Derivatives of 3-Aminopyrazine-2-Carboxamide: Towards Inhibitors of Prolyl-tRNA Synthetase with Antimycobacterial Activity” (Biomolecules, 2022).
Converted amounts (≈) assume the structure as drawn. Like-named read-outs stand apart in the source and are kept apart here.

What was measured:
[1] = tested on: Mycobacterium smegmatis DSM 43465 (ATCC 607); assay: Microplate Alamar Blue Assay (MABA), M. smegmatis; type: cell-based; conditions: Mycolicibacterium smegmatis, read-out: M. smegmatis MIC
[2] = tested on: Acinetobacter baumannii DSM 30007 (ATCC 19606); assay: Antibacterial microdilution broth (EUCAST), ACI; type: cell-based; conditions: Acinetobacter baumannii; read after 24 h; read-out: ACI MIC
[3] = tested on: Candida albicans CCM 8320 (ATCC 24433); assay: Antifungal microdilution broth (EUCAST), CA; type: cell-based; conditions: Candida albicans; read after 24 h; read-out: CA MIC
[4] = tested on: Mycobacterium tuberculosis H37Ra ITM-M006710 (ATCC 9431); assay: Microplate Alamar Blue Assay (MABA), Mtb H37Ra; type: cell-based; conditions: for MIC: Mycobacterium tuberculosis, 120 h, pH 6.6, MABA, Middlebrook 7H9 broth pH 6.6, resazurin after 120 h, read-out: Mtb H37Ra MIC; for antimycobacterial activity (in words): activity refers to Mtb H37Ra from the primary screening if not otherwise stated
[5] = tested on: Trichophyton interdigitale CCM 8377 (ATCC 9533); assay: Antifungal microdilution broth (EUCAST), TI; type: cell-based; conditions: Trichophyton interdigitale, 72 h, read-out: TI MIC
[6] = tested on: Aspergillus flavus CCM 8363; assay: Antifungal microdilution broth (EUCAST), AFla; type: cell-based; conditions: Aspergillus flavus, CCM8363; read after 24 h; read-out: AFla MIC
[7] = tested on: Staphylococcus aureus subsp. aureus CCM 4223 (ATCC 29213); assay: Antibacterial microdilution broth (EUCAST), SA; type: cell-based; conditions: Staphylococcus aureus; read after 24 h; read-out: SA MIC
[8] = tested on: Staphylococcus epidermidis CCM 4418 (ATCC 12228); assay: Antibacterial microdilution broth (EUCAST), SE; type: cell-based; conditions: read after 24 h, read-out: SE MIC
[9] = tested on: Escherichia coli CCM 3954 (ATCC 25922); assay: Antibacterial microdilution broth (EUCAST), EC; type: cell-based; conditions: Escherichia coli; read after 24 h; read-out: EC MIC
[10] = tested on: Lichtheimia corymbifera CCM 8077; assay: Antifungal microdilution broth (EUCAST), LC; type: cell-based; conditions: Lichtheimia corymbifera, CCM8077; read after 24 h; read-out: LC MIC
[11] = tested on: Klebsiella pneumoniae CCM 4415 (ATCC 10031); assay: Antibacterial microdilution broth (EUCAST), KP; conditions: read after 24 h
[12] = tested on: HepG2 human hepatocellular carcinoma cells; assay: In vitro HepG2 cytotoxicity (CellTiter 96); conditions: for solubility in the testing medium (in words): HepG2 cell culture medium; for IC50: Homo sapiens, HepG2, 24 h, read-out: HepG2 IC50, 24 h incubation, * limit = highest evaluated concentration (precipitation in medium), ** over the 1000 µM limit
[13] = tested on: M. aurum DSM 43999 (ATCC 23366); assay: Microplate Alamar Blue Assay (MABA), M. aurum; type: cell-based; conditions: Mycolicibacterium aurum, read-out: M. aurum MIC
[14] = tested on: Aspergillus fumigatus ATCC 204305; assay: Antifungal microdilution broth (EUCAST), AF; type: cell-based; conditions: Aspergillus fumigatus, ATCC204305; read after 24 h; read-out: AF MIC
[15] = tested on: Pseudomonas aeruginosa CCM 3955 (ATCC 27853); assay: Antibacterial microdilution broth (EUCAST), PA; type: cell-based; conditions: Pseudomonas aeruginosa; read after 24 h; read-out: PA MIC
[16] = tested on: Candida tropicalis CCM 8264 (ATCC 750); assay: Antifungal microdilution broth (EUCAST), CT; type: cell-based; conditions: Candida tropicalis; read after 24 h; read-out: CT MIC
[17] = tested on: Staphylococcus aureus subsp. aureus methicillin-resistant (MRSA) CCM 4750 (ATCC 43300); assay: Antibacterial microdilution broth (EUCAST), MRSA; type: cell-based; conditions: Staphylococcus aureus; read after 24 h; read-out: MRSA MIC
[18] = tested on: Candida krusei CCM 8271 (ATCC 6258); assay: Antifungal microdilution broth (EUCAST), CK; type: cell-based; conditions: Pichia kudriavzevii; read after 24 h; read-out: CK MIC
[19] = tested on: Candida parapsilosis CCM 8260 (ATCC 22019); assay: Antifungal microdilution broth (EUCAST), CP; type: cell-based; conditions: Lodderomyces parapsilosis; read after 24 h; read-out: CP MIC
[20] = tested on: Enterococcus faecalis CCM 4224 (ATCC 29212); assay: Antibacterial microdilution broth (EUCAST), EF; type: cell-based; conditions: Enterococcus faecalis; read after 24 h; read-out: EF MIC

Compound: NC(=O)c1nccnc1NC(=O)c1cccc(F)c1 [Compound 11]
- MIC ([1]; 48 h): ≥ 125 µg/mL
- MIC [2]: > 250 µM
- MIC [3]: > 250 µM
- MIC [4]: ≥ 125 µg/mL
- MIC [5]: > 250 µM
- melting point: 234.1 to 236 °C
- MIC [6]: > 250 µM
- MIC [7]: > 250 µM
- MIC [8]: > 250 µM
- MIC [9]: > 250 µM
- MIC [10]: > 250 µM
- KP MIC [11]: > 250 µM
- solubility in the testing medium (in words) [12]: low solubility
- IC50 [12]: > 50 µM
- MIC ([13]; 72 h): ≥ 125 µg/mL
- MIC [14]: > 250 µM
- MIC [15]: > 250 µM
- MIC [16]: > 250 µM
- MIC [17]: > 250 µM
- MIC [18]: > 250 µM
- MIC [19]: > 250 µM
- MIC [20]: > 250 µM

Compound: NC(=O)c1nccnc1NC(=O)c1ccccc1Br [Compound 16]
- MIC ([1]; MABA, resazurin after 48 h): ≥ 250 µg/mL
- MIC [2]: > 500 µM
- MIC [3]: > 500 µM
- MIC [4]: ≥ 250 µg/mL
- MIC [5]: > 500 µM
- melting point: 223.1 to 225.1 °C
- MIC [6]: > 500 µM
- MIC [7]: > 500 µM
- MIC [8]: > 500 µM
- MIC [9]: > 500 µM
- MIC [10]: > 500 µM
- KP MIC [11]: > 500 µM
- IC50 [12]: > 500 µM
- MIC ([13]; MABA, resazurin after 72 h): ≥ 250 µg/mL
- MIC [14]: > 500 µM
- MIC [15]: > 500 µM
- MIC [16]: > 500 µM
- MIC [17]: > 500 µM
- MIC [18]: > 500 µM
- MIC [19]: > 500 µM
- MIC [20]: > 500 µM

Compound: NC(=O)c1nccnc1NC(=O)c1cccc(Br)c1 [Compound 17]
- MIC ([1]; 48 h): ≥ 125 µg/mL
- MIC [2]: > 125 µM
- MIC [3]: > 125 µM
- MIC [4]: ≥ 125 µg/mL
- MIC [5]: > 125 µM
- melting point: 255 to 256 °C
- MIC [6]: > 125 µM
- MIC [7]: > 125 µM
- MIC [8]: > 125 µM
- MIC [9]: > 125 µM
- MIC [10]: > 125 µM
- KP MIC [11]: > 125 µM
- solubility in the testing medium (in words) [12]: low solubility
- IC50 [12]: > 5 µM
- MIC ([13]; 72 h): ≥ 125 µg/mL
- MIC [14]: > 125 µM
- MIC [15]: > 125 µM
- MIC [16]: > 125 µM
- MIC [17]: > 125 µM
- MIC [18]: > 125 µM
- MIC [19]: > 125 µM
- MIC [20]: > 125 µM

Compound: NC(=O)c1nccnc1NC(=O)c1cc(Cl)cc(Cl)c1 [Compound 19]
- MIC ([1]; 48 h): ≥ 62.5 µg/mL
- MIC [2]: > 500 µM
- MIC [3]: > 500 µM
- MIC [4]: ≥ 62.5 µg/mL
- MIC [5]: > 500 µM
- melting point: > 300 °C
- MIC [6]: > 500 µM
- MIC [7]: > 500 µM
- MIC [8]: > 500 µM
- MIC [9]: > 500 µM
- MIC [10]: > 500 µM
- KP MIC [11]: > 500 µM
- IC50 [12]: > 250 µM
- MIC ([13]; 72 h): ≥ 62.5 µg/mL
- MIC [14]: > 500 µM
- MIC [15]: > 500 µM
- MIC [16]: > 500 µM
- MIC [17]: > 500 µM
- MIC [18]: > 500 µM
- MIC [19]: > 500 µM
- MIC [20]: > 500 µM

Compound: NC(=O)c1nccnc1NC(=O)c1ccccc1C(F)(F)F [Compound 20]
- MIC ([1]; MABA, resazurin after 48 h): ≥ 500 µg/mL
- MIC [2]: > 500 µM
- MIC [3]: > 500 µM
- MIC [4]: 500 µg/mL (≈ 1610 µM)
- MIC [5]: > 500 µM
- melting point: 201.5 to 202.4 °C
- MIC [6]: > 500 µM
- MIC [7]: > 500 µM
- MIC [8]: > 500 µM
- MIC [9]: > 500 µM
- MIC [10]: > 500 µM
- KP MIC [11]: > 500 µM
- IC50 [12]: > 250 µM
- MIC ([13]; MABA, resazurin after 72 h): ≥ 500 µg/mL
- MIC [14]: > 500 µM
- MIC [15]: > 500 µM
- MIC [16]: > 500 µM
- MIC [17]: > 500 µM
- MIC [18]: > 500 µM
- MIC [19]: > 500 µM
- MIC [20]: > 500 µM

Compound: NC(=O)c1nccnc1NC(=O)c1ccc([N+](=O)[O-])cc1 [Compound 21, 3-(4-nitrobenzamido)pyrazine-2-carboxamide]
- MIC ([1]; MABA, resazurin after 48 h): 250 µg/mL (≈ 870 µM)
- MIC [2]: > 125 µM
- MIC [3]: > 125 µM
- MIC [4]: 250 µg/mL (≈ 870 µM)
- MIC [5]: > 125 µM
- melting point: > 300 °C
- MIC [6]: > 125 µM
- MIC [7]: > 125 µM
- MIC [8]: > 125 µM
- MIC [9]: > 125 µM
- MIC [10]: > 125 µM
- KP MIC [11]: > 125 µM
- IC50 [12]: > 100 µM
- MIC ([13]; MABA, resazurin after 72 h): ≥ 500 µg/mL
- MIC [14]: > 125 µM
- MIC [15]: > 125 µM
- MIC [16]: > 125 µM
- MIC [17]: > 125 µM
- MIC [18]: > 125 µM
- MIC [19]: > 125 µM
- MIC [20]: > 125 µM

Compound: NC(=O)c1nccnc1NC(=O)Cc1ccc(F)cc1 [Compound 25]
- MIC ([1]; MABA, resazurin after 48 h): ≥ 250 µg/mL
- MIC [2]: > 250 µM
- MIC [3]: > 250 µM
- MIC [4]: ≥ 250 µg/mL
- antimycobacterial activity (in words) [4]: inactive
- MIC [5]: > 250 µM
- melting point: 225.3 to 227.3 °C
- MIC [6]: > 250 µM
- MIC [7]: > 250 µM
- MIC [8]: > 250 µM
- MIC [9]: > 250 µM
- MIC [10]: > 250 µM
- KP MIC [11]: > 250 µM
- IC50 [12]: > 100 µM
- MIC ([13]; MABA, resazurin after 72 h): ≥ 250 µg/mL
- MIC [14]: > 250 µM
- MIC [15]: > 250 µM
- MIC [16]: > 250 µM
- MIC [17]: > 250 µM
- MIC [18]: > 250 µM
- MIC [19]: > 250 µM
- MIC [20]: > 250 µM

Compound: NC(=O)c1nccnc1NC(=O)CCc1ccccc1 [Compound 26]
- MIC ([1]; MABA, resazurin after 48 h): ≥ 500 µg/mL
- MIC [2]: > 500 µM
- MIC [3]: > 500 µM
- MIC [4]: 125 µg/mL (≈ 462 µM)
- antimycobacterial activity (in words) [4]: inactive
- MIC [5]: > 500 µM
- melting point: 160.3 to 161.5 °C
- MIC [6]: > 500 µM
- MIC [7]: > 500 µM
- MIC [8]: > 500 µM
- MIC [9]: > 500 µM
- MIC [10]: > 500 µM
- KP MIC [11]: > 500 µM
- IC50 [12]: > 500 µM
- MIC ([13]; MABA, resazurin after 72 h): ≥ 500 µg/mL
- MIC [14]: > 500 µM
- MIC [15]: > 500 µM
- MIC [16]: > 500 µM
- MIC [17]: > 500 µM
- MIC [18]: > 500 µM
- MIC [19]: > 500 µM
- MIC [20]: > 500 µM
